{"source": "patent US20110293558A1", "about": "“MATERIAL PROPERTIES OF T CELLS AND RELATED METHODS AND COMPOSITIONS” (Massachusetts Institute of Technology, priority 2010, published 2011)", "key": {"parasitemia": {"test_system": "parasitemia", "conditions": "patients treated with artemisinin and its derivatives vs other antimalarial drugs; cited from earlier work"}, "[1]": {"test_system": "RBCs re-suspended in saline / Ringer solution", "conditions": "cited from earlier work"}, "[2]": {"test_system": "P. falciparum-infected RBCs (iRBCs)", "experiment": "Microfluidic deformability cytometer: cell mobility after artesunate treatment", "assay_type": "cell-based, human", "conditions": "for iRBC deformability (cell mobility) after artesunate drug treatment: 0.01, 0.05 or 0.1 μg/ml artesunate, 2, 4 and 6 hours after treatment, synchronized rings ~15% parasitemia; for separation resolution between iRBCs and uRBCs: after artesunate drug treatment vs untreated", "from_the_text": "(§1) The device used in this example comprises a series of equally spaced triangular pillar arrays with pore sizes ranging from 2.5 to 4 um (FIG. 55A illustrates the case of 3 um pore size). Compared to the diameter of an average RBC (˜7.5 um), the smaller pore sizes are designed to impose similar mechanical constraints on the cells as if they are passing through blood capillaries and splenic meshwork. Driven by constant pressure gradient in the sub-Pascal-per-micrometer range, RBCs are able to deform substantially at each constriction and traverse along the channel. The dynamic deformability of RBCs is then characterized by their mobility: the ability to deform repeatedly in order to pass through multiple constrictions in series.\n(§2) FIG. 55A depicts an experimental schematic of the microfluidic system. A heating chamber (Olympus) was mounted to the inverted microscope stage. Four heaters for the inner water bath, microscope stage, chamber top, and lens were designed to accurately control the ambient temperature inside the chamber. The PDMS-glass bonded device consists of the inlet and outlet reservoirs and main channels with triangular pillar arrays. It was placed inside the heating chamber with only the inlet reservoir connecting to an external syringe via a 20 cm-tubing. The reservoirs were 500×500 μm^2 squares with 20 μm-interspacing cylindrical pillar arrays; these pillar arrays could pre-filter white blood cells from whole blood, allowing only RBCs to pass through the main channels. Each of the parallel channels was 10 pillars wide and 200 pillars long. Along the flow direction, the inter-pillar spacing was 10 μm. This spacing allows deformed cells to recover and ready for subsequent deformations. Perpendicular to the flow direction, the pore size varied from 2.5 to 4 μm for different channels. Cells experience different levels of deformation when passing through these pores.\n(§3) FIG. 55B presents microscopic screenshots illustrating both iRBCs and co-cultured uRBCs moving in the microchannel at different temperature conditions. The uninfected cells appear as dark shadows indicated by blue arrows, and the infected cells with thiazole orange (TO) staining appear as bright dots indicated by white arrows. The mobility of individual cells can then be derived by recording the time period for each cell passing through 10 constrictions in series (i.e. equivalent to 200 μm distance travelled). In this example, cell mobility is used to characterize the dynamic deformability of individual RBCs.\n(§4) The deformability of both iRBCs and uRBCs were measured at 2, 4 and 6 hours after artesunate drug treatment (FIG. 60). A synchronized culture of rings with ˜15% parasitemia was resuspended at 0.1% hematocrit in malaria culture medium containing 0.01, 0.05 or 0.1 μg/ml of artesunate.\n(§5) Layout program CleWin3.0 was used to design the microfluidic device, which consists of a 500×500 μm^2 inlet reservoir, a 500×500 μm^2 outlet reservoir, and parallel capillary channels with triangular pillar arrays (FIG. 55A). Three different pore-size of 2.5, 3.0 and 4.0 μm were designed for the capillary channels to test optimum deformation condition for the experiment. A silicon mold of the device was made using standard silicon processing techniques. The photolithography step was done using a 5× reduction step-and-repeat projection stepper (Nikon NSR2005i9, Nikon Prevision) and reactive-ion etching (RIE) techniques were used to give the mold a final depth of 4.2 μm. Final device was then casted from the silicon mold using polydimethylsiloxane (PDMS) and was sealed by a glass slide using oxygen plasma.\n(§6) P. falciparum 3D7A parasites (from Malaria Research and Reference Reagent Source, American Type Culture Collection) were cultured in leukocyte-free human RBCs (Research Blood Components, Brighton Mass.) in RPMI 1640 complete medium as described (Trager and Jensen J. parasitol. 2005). […]"}, "[3]": {"test_system": "co-cultured uninfected RBCs (uRBCs)", "experiment": "Microfluidic deformability cytometer: cell mobility after artesunate treatment", "assay_type": "cell-based, human", "conditions": "0.01, 0.05 or 0.1 μg/ml artesunate; 2, 4 and 6 hours after treatment", "from_the_text": "as §1, §2, §3, §4, §5, §6"}, "RBCs": {"test_system": "RBCs", "experiment": "Deformability cytometer: RBC velocity/passage after glutaraldehyde treatment", "assay_type": "cell-based, human", "from_the_text": "The device design includes periodically spaced, triangle-shaped pillars and the gaps between these pillars result in well-controlled constrictions for RBCs to pass. The height of the device was set to 4.2 μm. RBCs were forced to assume a flat orientation before entering each constriction. This height, in addition to filters at the reservoirs, prevented white blood cells from entering the device, and permitted diluted whole blood to be used directly.\nA mold of the device was made on a silicon wafer using photolithography and reactive-ion etching techniques. A 5× reduction step-and-repeat projection stepper (Nikon NSR2005i9, Nikon Precision) was used for patterning. The spacing between pillars was 3 μm, and the depth of the device was 4.2 μm. The device was made using standard PDMS casting protocols and bonded to a glass slide.\nPBS was mixed with 0.2% w/v Pluronic F-108 (BASF, Mount Olive, N.J.) and 1% w/v Bovine Serum Albumin (BSA) (Sigma-Aldrich, St. Louis, Mo.) as a stock solution to prevent RBC adhesion to the device walls. For the fluorescent bead experiments, 200 nm FluoSpheres europium luminescent microspheres (Molecular Probes, Eugene, Oreg.) diluted to a final concentration of 1.25×10^−5 percent solids were used.\nIn experiments involving blood, 1 μl of whole blood (˜50% hematocrit) was diluted in 100 μl of the PBS-pluronic-BSA solution for all of the experiments. […]"}}, "note": "“Also recorded” adds a separate entry of the source.", "data": [{"compound": "C[C@@H]1CC[C@H]2[C@@H](C)C(=O)O[C@@H]3O[C@@]4(C)CC[C@@H]1[C@]32OO4", "note": "[artemisinin]", "values": [{"measurement": "decline in parasitemia", "setting": "parasitemia", "result": "more rapid decline in parasitemia"}]}, {"compound": "Fibrinogen", "values": [{"measurement": "suspension viscosity", "setting": "[1]; fibrinogen added progressively to washed RBCs in pure saline", "result": "increase in viscosity with increasing fibrinogen concentration at low deformation rates"}]}, {"compound": "C[C@H]1[C@H](OC(=O)CCC(=O)O)O[C@@H]2O[C@@]3(C)CC[C@H]4[C@H](C)CC[C@@H]1[C@@]24OO3", "note": "[artesunate]", "values": [{"measurement": "iRBC deformability (cell mobility) after artesunate drug treatment", "setting": "[2]", "result": "stiffening effect; also recorded: drop in iRBC deformability is more precipitous than in uRBC"}, {"measurement": "iRBC deformability (cell mobility) after artesunate drug treatment", "setting": "[2]; listed as Artesunate", "result": "significant decrease in cell mobility"}, {"measurement": "mobility decrease", "setting": "[2]; 2 and 4 hours after artesunate treatment, iRBCs and uRBCs both measured", "result": "smaller and less pronounced mobility decrease"}, {"measurement": "dose dependence of mobility changes", "setting": "[2]; after 4 hour drug treatment, dosage range 0.01 to 0.1 μg/ml", "result": "no statistically significant dose dependence"}, {"measurement": "separation resolution between iRBCs and uRBCs", "setting": "[2]", "result": "almost doubled"}, {"measurement": "separation resolution between iRBCs and uRBCs", "setting": "[2]; listed as Artesunate", "result": "doubled"}, {"measurement": "uRBC deformability (cell mobility) after artesunate drug treatment", "setting": "[3]", "result": "stiffening effect; also recorded: stiffened considerably"}]}, {"compound": "CC=O", "note": "[acetaldehyde]", "values": [{"measurement": "RBC hardening / suspension viscosity", "setting": "[1]; prolonged exposure of clean RBCs to acetaldehyde, re-suspension in Ringer solution", "result": "constant suspension viscosity over the full range of hematocrit and shear rates"}]}, {"compound": "O=CCCCC=O", "note": "[glutaraldehyde]", "values": [{"measurement": "RBC stiffness / velocity with increasing glutaraldehyde concentration", "setting": "RBCs; 30 minutes in PBS, approx. 0.61 Pa/μm, FIG. 5B", "result": "progressively stiffer with decreasing velocity"}, {"measurement": "RBC passage into the channel", "setting": "RBCs; glutaraldehyde concentrations greater than 0.003%", "result": "most RBCs were held up at the entrance to the channel"}]}]}
